What was measured:
PSMA [1] = assay: In vitro autoradiography of LNCaP tumor and mouse kidney sections; format: binding; conditions: incubation with 2-PMPA
Procedure: LNCaP tumor and mouse kidneys were cut at 20 μm on a cryostat, thaw-mounted onto slides. Slides are incubated with radiotracers (3 μCi/ml) in PBS for 30 min and washed with PBS twice for 3 min each. After drying, the slides put into a plate for exposure for 30 min. Images were acquired with Typhoon FLA 7000 (GE Healthcare).
To validate the PSMA binding, in vitro autoradiography studies using LNCaP tumor and mouse kidney sections were carried out.
FIGS. 2A-2K show in vitro autoradiography of LNCaP tumor (left side) and mouse kidney sections (right side). […] These new PSMA target compounds, display high uptake in the sections. [^68Ga]1a (PSMA-11) was used as a control.

PSMA [2] = molecular target: T1, PSMA (Homo sapiens, UniProt Q04609); assay: In vitro binding signals of 68Ga labeled ligands in LNCaP tumor homogenates; conditions: Ga-68 radiolabeled ligands; for Nonspecific binding (NSB): with 1a (PSMA11) 10 μM
T1 construct: 100 μL of freshly harvested PSMA cells; endogenous in cells; host or cells: 'PSMA cells' in the method
T1 sequence (Q04609 whole entry): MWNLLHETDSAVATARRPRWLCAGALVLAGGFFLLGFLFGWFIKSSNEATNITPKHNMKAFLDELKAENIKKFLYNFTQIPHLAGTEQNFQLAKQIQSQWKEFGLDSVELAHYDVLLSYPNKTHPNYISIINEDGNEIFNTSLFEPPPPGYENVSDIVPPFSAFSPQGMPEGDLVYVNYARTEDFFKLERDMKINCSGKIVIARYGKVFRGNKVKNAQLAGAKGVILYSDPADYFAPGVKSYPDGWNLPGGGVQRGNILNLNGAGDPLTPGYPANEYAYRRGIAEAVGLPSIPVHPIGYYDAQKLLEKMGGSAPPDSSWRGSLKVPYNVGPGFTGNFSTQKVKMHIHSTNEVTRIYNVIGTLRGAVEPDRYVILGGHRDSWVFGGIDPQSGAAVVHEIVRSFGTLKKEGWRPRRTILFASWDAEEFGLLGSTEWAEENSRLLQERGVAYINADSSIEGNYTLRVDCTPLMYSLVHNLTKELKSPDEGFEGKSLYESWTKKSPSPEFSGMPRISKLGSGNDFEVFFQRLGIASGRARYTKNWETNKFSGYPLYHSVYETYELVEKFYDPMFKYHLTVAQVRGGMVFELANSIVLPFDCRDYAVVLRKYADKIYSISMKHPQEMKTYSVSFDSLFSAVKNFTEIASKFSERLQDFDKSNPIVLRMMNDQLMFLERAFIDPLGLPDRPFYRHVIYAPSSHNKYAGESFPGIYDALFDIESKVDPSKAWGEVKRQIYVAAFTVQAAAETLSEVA

[3] = test system: PSMA expressing LNCaP cells; assay: Cell uptake comparisons in LNCaP cells (FIG. 1); format: cell-based, human; conditions: 1 hr at 37° C.
Procedure: Cell uptake studies were performed using PSMA expressing LNCaP cells. Cells were grown in 6 well plates for 2 days. After incubation with ^68Ga-labeled ligands for 1 hr at 37° C., media were removed. After washing twice with 3 mL PBS buffer, cells were lysed with 0.1 N NaOH. Lysed cells were wiped with filter paper and radioactivity in filter paper was measured with a gamma counter.
The LNCaP cells over express PSMA receptor binding sites, the level of binding, % uptake/well, was an indicator of PSMA binding, the higher the better. [^68Ga]1a, a known PSMA imaging agent (PSMA-11), was used as a control.

[4] = Biodistribution of radiotracers in normal mice; format: in vivo, mouse; conditions: normal male mice
Procedure, shortened: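 Male CD-1 mice received 35 μCi [^68Ga] radiotracer (0.2 nmole ligand) by tail vein. Four mice per time point sacrificed at 2, 30, 60 and 120 min p.i.; organs and blood weighed and gamma counted. %ID/g calculated against a standard dilution of the dose, decay-corrected.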

2-(3-mercaptopropyl)pentane-dioic acid [Compound 2-PMPA]
Blocking of radiotracer binding in autoradiography, in words (PSMA [1]): blocked radiotracers' binding to tumor and kidney

O=C(O)CCc1ccc2c(n1)C[N+]13CC[N+]45CC(=O)[O][68Ga-3]14([O]C(=O)C3)([O]2)[O]c1ccc(CCC(=O)NCCCCCC(=O)NCCCC[C@H](NC(=O)N[C@@H](CCC(=O)O)C(=O)O)C(=O)O)nc1C5 (some centres unmarked) [[^68Ga]2]
Specific binding (SB) SB = TB − NSB (PSMA [2]): lower specific binding | Nonspecific binding (NSB) (PSMA [2]): high nonspecific binding | Cell uptake (% uptake/well), in words [3]: low cell uptakes | Biodistribution: Blood ([4]; 2 min): 8.92 ± 0.75 % dose/g | Biodistribution: Bone ([4]; 2 min): 2.18 ± 0.08 % dose/g | Biodistribution: Brain ([4]; 2 min): 0.24 ± 0.02 % dose/g | Biodistribution: Heart ([4]; 2 min): 3.40 ± 0.45 % dose/g | Biodistribution: Kidney ([4]; 2 min): 56.4 ± 8.05 % dose/g | Biodistribution: Liver ([4]; 2 min): 2.01 ± 0.08 % dose/g | Biodistribution: Lung ([4]; 2 min): 5.18 ± 0.52 % dose/g | Biodistribution: Muscle ([4]; 2 min): 2.00 ± 0.25 % dose/g | Biodistribution: Pancreas ([4]; 2 min): 1.85 ± 0.17 % dose/g | Biodistribution: Skin ([4]; 2 min): 3.07 ± 0.05 % dose/g | Biodistribution: Spleen ([4]; 2 min): 3.57 ± 0.20 % dose/g | Biodistribution: Blood ([4]; 30 min): 1.18 ± 0.15 % dose/g | Biodistribution: Bone ([4]; 30 min): 0.48 ± 0.02 % dose/g | Biodistribution: Brain ([4]; 30 min): 0.05 ± 0.00 % dose/g | Biodistribution: Heart ([4]; 30 min): 0.51 ± 0.03 % dose/g | Biodistribution: Kidney ([4]; 30 min): 108 ± 8.66 % dose/g | Biodistribution: Liver ([4]; 30 min): 0.33 ± 0.01 % dose/g | Biodistribution: Lung ([4]; 30 min): 1.07 ± 0.12 % dose/g | Biodistribution: Muscle ([4]; 30 min): 0.46 ± 0.03 % dose/g | Biodistribution: Pancreas ([4]; 30 min): 0.76 ± 0.12 % dose/g | Biodistribution: Skin ([4]; 30 min): 0.88 ± 0.08 % dose/g | Biodistribution: Spleen ([4]; 30 min): 1.33 ± 0.08 % dose/g | Biodistribution: Blood ([4]; 60 min): 0.89 ± 0.10 % dose/g | Biodistribution: Bone ([4]; 60 min): 0.43 ± 0.01 % dose/g | Biodistribution: Brain ([4]; 60 min): 0.03 ± 0.00 % dose/g | Biodistribution: Heart ([4]; 60 min): 0.33 ± 0.02 % dose/g | Biodistribution: Kidney ([4]; 60 min): 67.8 ± 15.57 % dose/g | Biodistribution: Liver ([4]; 60 min): 0.25 ± 0.06 % dose/g | Biodistribution: Lung ([4]; 60 min): 0.72 ± 0.16 % dose/g | Biodistribution: Muscle ([4]; 60 min): 0.24 ± 0.01 % dose/g | Biodistribution: Pancreas ([4]; 60 min): 0.44 ± 0.08 % dose/g | Biodistribution: Skin ([4]; 60 min): 0.46 ± 0.10 % dose/g | Biodistribution: Spleen ([4]; 60 min): 0.84 ± 0.24 % dose/g | Biodistribution: Blood ([4]; 120 min): 0.78 ± 0.04 % dose/g | Biodistribution: Bone ([4]; 120 min): 0.60 ± 0.03 % dose/g | Biodistribution: Brain ([4]; 120 min): 0.03 ± 0.01 % dose/g | Biodistribution: Heart ([4]; 120 min): 0.28 ± 0.02 % dose/g | Biodistribution: Kidney ([4]; 120 min): 26.9 ± 6.13 % dose/g | Biodistribution: Liver ([4]; 120 min): 0.22 ± 0.01 % dose/g | Biodistribution: Lung ([4]; 120 min): 0.45 ± 0.01 % dose/g | Biodistribution: Muscle ([4]; 120 min): 0.18 ± 0.01 % dose/g | Biodistribution: Pancreas ([4]; 120 min): 0.30 ± 0.04 % dose/g | Biodistribution: Skin ([4]; 120 min): 0.29 ± 0.03 % dose/g | Biodistribution: Spleen ([4]; 120 min): 0.36 ± 0.04 % dose/g

O=C(O)CC[C@H](NC(=O)N[C@@H](CCCCNC(=O)CCCCCNC(=O)CCc1ccc2c(n1)C[N+]13CC[N+]45CC(=O)[O][68Ga-3]14([O]C(=O)C3)([O]2)[O]c1ccc(CCC(=O)NCCCCCC(=O)NCCCC[C@H](NC(=O)N[C@@H](CCC(=O)O)C(=O)O)C(=O)O)nc1C5)C(=O)O)C(=O)O (some centres unmarked) [[^68Ga]3]
Specific binding (SB) SB = TB − NSB (PSMA [2]): lower specific binding | Nonspecific binding (NSB) (PSMA [2]): high nonspecific binding | Cell uptake (% uptake/well), in words [3]: low cell uptakes | Biodistribution: Blood ([4]; 2 min): 8.94 ± 1.57 % dose/g | Biodistribution: Bone ([4]; 2 min): 3.53 ± 0.96 % dose/g | Biodistribution: Brain ([4]; 2 min): 0.33 ± 0.06 % dose/g | Biodistribution: Heart ([4]; 2 min): 4.34 ± 1.15 % dose/g | Biodistribution: Kidney ([4]; 2 min): 56.2 ± 6.53 % dose/g | Biodistribution: Liver ([4]; 2 min): 3.42 ± 0.11 % dose/g | Biodistribution: Lung ([4]; 2 min): 7.49 ± 2.71 % dose/g | Biodistribution: Muscle ([4]; 2 min): 2.02 ± 0.74 % dose/g | Biodistribution: Pancreas ([4]; 2 min): 2.89 ± 0.61 % dose/g | Biodistribution: Skin ([4]; 2 min): 2.63 ± 0.48 % dose/g | Biodistribution: Spleen ([4]; 2 min): 5.14 ± 1.49 % dose/g | Biodistribution: Blood ([4]; 30 min): 3.19 ± 0.72 % dose/g | Biodistribution: Bone ([4]; 30 min): 1.70 ± 0.20 % dose/g | Biodistribution: Brain ([4]; 30 min): 0.09 ± 0.01 % dose/g | Biodistribution: Heart ([4]; 30 min): 0.93 ± 0.22 % dose/g | Biodistribution: Kidney ([4]; 30 min): 94.4 ± 13.7 % dose/g | Biodistribution: Liver ([4]; 30 min): 1.71 ± 0.05 % dose/g | Biodistribution: Lung ([4]; 30 min): 1.38 ± 0.17 % dose/g | Biodistribution: Muscle ([4]; 30 min): 1.53 ± 0.68 % dose/g | Biodistribution: Pancreas ([4]; 30 min): 1.36 ± 0.32 % dose/g | Biodistribution: Skin ([4]; 30 min): 1.48 ± 0.34 % dose/g | Biodistribution: Spleen ([4]; 30 min): 4.35 ± 0.37 % dose/g | Biodistribution: Blood ([4]; 60 min): 1.52 ± 0.44 % dose/g | Biodistribution: Bone ([4]; 60 min): 2.34 ± 1.08 % dose/g | Biodistribution: Brain ([4]; 60 min): 0.06 ± 0.04 % dose/g | Biodistribution: Heart ([4]; 60 min): 0.82 ± 0.22 % dose/g | Biodistribution: Kidney ([4]; 60 min): 61.3 ± 5.97 % dose/g | Biodistribution: Liver ([4]; 60 min): 1.81 ± 0.14 % dose/g | Biodistribution: Lung ([4]; 60 min): 1.29 ± 0.31 % dose/g | Biodistribution: Muscle ([4]; 60 min): 1.01 ± 0.29 % dose/g | Biodistribution: Pancreas ([4]; 60 min): 1.34 ± 0.45 % dose/g | Biodistribution: Skin ([4]; 60 min): 2.35 ± 0.34 % dose/g | Biodistribution: Spleen ([4]; 60 min): 1.75 ± 0.17 % dose/g | Biodistribution: Blood ([4]; 120 min): 1.00 ± 0.30 % dose/g | Biodistribution: Bone ([4]; 120 min): 3.56 ± 1.08 % dose/g | Biodistribution: Brain ([4]; 120 min): 0.05 ± 0.02 % dose/g | Biodistribution: Heart ([4]; 120 min): 0.84 ± 0.20 % dose/g | Biodistribution: Kidney ([4]; 120 min): 30.3 ± 8.87 % dose/g | Biodistribution: Liver ([4]; 120 min): 2.00 ± 0.20 % dose/g | Biodistribution: Lung ([4]; 120 min): 0.97 ± 0.12 % dose/g | Biodistribution: Muscle ([4]; 120 min): 1.13 ± 0.50 % dose/g | Biodistribution: Pancreas ([4]; 120 min): 1.21 ± 0.19 % dose/g | Biodistribution: Skin ([4]; 120 min): 1.22 ± 0.20 % dose/g | Biodistribution: Spleen ([4]; 120 min): 1.71 ± 0.56 % dose/g
